# Data as given in patent US20220395003A1, “Methods for Use in Food Processing and Preservation” (priority 2019, published 2022).
# Columns and labels:
# [1] = test system: microbial growth on the surface of beef carcasses; assay: Microbiological analysis of beef carcass surface after treatment (Example 1)
# Description: (§1) A 0.3% aqueous solution of chitosan formed as described above having 0.01% sodium sulfite and 0.1% acetic acid was poured into a commercial dry vapor steam cleaning unit and allowed to equilibrate for about 15 minutes. The steam was applied to a beef carcass by the method of […] as disclosed in U.S. Pat. No. 9,149,036 which is incorporated herein by reference in its entirety. For comparison, a beef carcass was sprayed with an aqueous solution of about 3% acetic acid by standard methods known in the art. Prior to applying the chitosan steam or the aqueous acetic acid solution, the beef carcasses were washed thoroughly with hot water. The beef carcasses were maintained at 4 degrees centigrade.
# [2] = test system: microbial growth on the surface of beef carcass; assay: Microbiological analysis of low and high surface areas of beef carcass (Example 2)
# Description: as §1, with “centigrade. Microbiological analysis was performed on the surface of the carcasses at pretreatment and at 1, 24, and 72 hours after treatment. […] The study in Example 1 was repeated, applying the previously-described 0.3% chitosan, acetic acid, and sodium sulfite solution on a low surface area and a high surface area of a beef carcass.” for “centigrade.”
structure (smiles),measurement,setting,value
"CC(=O)O [Water wash + acetic acid, acetic acid]",microbial growth,"[1]; Flank, 0 h (pretreatment), 4 degrees centigrade",2.60 log colony forming units
same,microbial growth,"[1]; Flank, 1 h after treatment",2.10 log colony forming units
same,microbial growth,"[1]; Flank, 24 h after treatment",2.10 log colony forming units
same,microbial growth,"[1]; Flank, 72 h after treatment",2.00 log colony forming units
same,microbial growth,"[1]; Loin, 0 h (pretreatment), 4 degrees centigrade",3.70 log colony forming units
same,microbial growth,"[1]; Loin, 1 h after treatment",2.40 log colony forming units
same,microbial growth,"[1]; Loin, 24 h after treatment",1.80 log colony forming units
same,microbial growth,"[1]; Loin, 72 h after treatment",2.00 log colony forming units
same,microbial growth,"[2]; High (A) surface, 1 h",1.59 log colony forming units
same,microbial growth,"[2]; High (A) surface, 48 h",1.35 log colony forming units
same,microbial growth,"[2]; High (A) surface, 168 h",1.49 log colony forming units
same,microbial growth,"[2]; High (B) surface, 1 h",2.03 log colony forming units
same,microbial growth,"[2]; High (B) surface, 48 h",1.80 log colony forming units
same,microbial growth,"[2]; High (B) surface, 168 h",1.77 log colony forming units
same,microbial growth,"[2]; High (C) surface, 1 h",1.88 log colony forming units
same,microbial growth,"[2]; High (C) surface, 48 h",1.65 log colony forming units
same,microbial growth,"[2]; High (C) surface, 168 h",1.43 log colony forming units
same,microbial growth,"[2]; Low (A) surface, 1 h",1.53 log colony forming units
same,microbial growth,"[2]; Low (A) surface, 48 h",1.09 log colony forming units
same,microbial growth,"[2]; Low (A) surface, 168 h",0.00 log colony forming units
same,microbial growth,"[2]; Low (B) surface, 1 h",1.73 log colony forming units
same,microbial growth,"[2]; Low (B) surface, 48 h",1.57 log colony forming units
same,microbial growth,"[2]; Low (B) surface, 168 h",1.45 log colony forming units
same,microbial growth,"[2]; Low (C) surface, 1 h",0.43 log colony forming units
same,microbial growth,"[2]; Low (C) surface, 48 h",0.94 log colony forming units
same,microbial growth,"[2]; Low (C) surface, 168 h",1.35 log colony forming units
